In ChEMBL document CHEMBL1201862, “PubChem BioAssay data set” (2004):
Counter-ions that a name gives are not always drawn.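 Protocol summary: plate cells (96-well), add compound at 5 concentrations, incubate 48 h, interpolate endpoints linearly. GI50 is the concentration that inhibits growth by half.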 Active and inactive are the calls of the source. Cut-off read from the data, not from the text of the source: active = GI50 up to about 1.1 µM and inactive = higher.

Key:
Test in all cases: DTP human tumour cell line panel, 48 h
HCT-15 = tested on: HCT-15
HT-29 = tested on: HT-29
HOP-92 = tested on: HOP-92
OVCAR-4 = tested on: OVCAR-4
SR = tested on: SR
SF-295 = tested on: SF-295
UACC-62 = tested on: UACC-62
SK-MEL-5 = tested on: SK-MEL-5
SNB-19 = tested on: SNB-19
SN12C = tested on: SN12C
A498 = tested on: A498
SK-MEL-28 = tested on: SK-MEL-28
A549 = tested on: A549
NCI-H460 = tested on: NCI-H460
TK-10 = tested on: TK-10
MDA-N = tested on: MDA-N
DU-145 = tested on: DU-145
MOLT-4 = tested on: MOLT-4
HOP-62 = tested on: HOP-62
SK-OV-3 = tested on: SK-OV-3

| Structure (SMILES) | GI50 (HCT-15) | GI50 (HT-29) | GI50 (HOP-92) | GI50 (OVCAR-4) | GI50 (SR) | GI50 (SF-295) | GI50 (UACC-62) | GI50 (SK-MEL-5) | GI50 (SNB-19) | GI50 (SN12C) | GI50 (A498) | GI50 (SK-MEL-28) | GI50 (A549) | GI50 (NCI-H460) | GI50 (TK-10) | GI50 (MDA-N) | GI50 (DU-145) | GI50 (MOLT-4) | GI50 (HOP-62) | GI50 (SK-OV-3) |
| --- | --- | --- | --- | --- | --- | --- | --- | --- | --- | --- | --- | --- | --- | --- | --- | --- | --- | --- | --- | --- |
| Cc1cn(C2CC(O)C(CO[Si](C)(C)C(C)(C)C)OC2OC(C)C)c(=O)[nH]c1=O (stereo not given) | 58.5 µM | 20 µM (inactive) | 32.2 µM (inactive) | 44.5 µM (inactive) | 31.2 µM (inactive) | 65 µM (inactive) | > 100 µM (inactive) | 32.7 µM (inactive) | 74.8 µM (inactive) | 39.6 µM (inactive) | > 10 µM (inactive) | 41 µM (inactive) | 34.1 µM (inactive) | 31.6 µM (inactive) | 39.5 µM (inactive) | 36.1 µM (inactive) | > 100 µM (inactive) |  |  |  |
| Cn1c2c(c3ccccc31)CCN1C(=O)C3SC21C1C(=O)N(c2ccccc2)C(=O)C31 (stereo not given) | > 100 µM | > 100 µM (inactive) | > 100 µM (inactive) | > 100 µM (inactive) | 35.3 µM (inactive) | > 100 µM (inactive) | 21.5 µM (inactive) | 20.4 µM (inactive) | > 100 µM (inactive) | > 100 µM (inactive) | 26.4 µM (inactive) | 25.4 µM (inactive) | > 100 µM (inactive) |  | 23.8 µM (inactive) | > 100 µM (inactive) | > 100 µM (inactive) | 38.5 µM (inactive) | > 100 µM (inactive) | > 100 µM (inactive) |
| CC(=O)O[C@H]1CC[C@H]2[C@@H]3CCC4=CC(=O)C=C[C@]4(O)[C@H]3CC[C@]12C | 29.6 µM |  | 23.9 µM (inactive) | > 48.9 µM (inactive) | 0.738 µM (active) | 16.6 µM (inactive) | 42.3 µM (inactive) | 4.6 µM (inactive) | 71.6 µM (inactive) | > 71.9 µM (inactive) | 42.8 µM (inactive) | 28.2 µM (inactive) | > 42 µM (inactive) | 32.2 µM (inactive) | > 100 µM (inactive) | 29.9 µM (inactive) | > 50.4 µM (inactive) | 8 µM (inactive) | > 100 µM (inactive) |  |
| N#Cc1c(C#N)c(-c2cccc([N+](=O)[O-])c2)n(-c2ccccc2)c1N | > 100 µM | > 100 µM (inactive) | 17.8 µM (inactive) | 11.5 µM (inactive) | > 100 µM (inactive) | 63.2 µM (inactive) | 66.1 µM (inactive) | > 100 µM (inactive) | 46.8 µM (inactive) | > 100 µM (inactive) | 17.8 µM (inactive) |  | 33.8 µM (inactive) |  | > 100 µM (inactive) | > 100 µM (inactive) | > 100 µM (inactive) | > 100 µM (inactive) | 49.4 µM (inactive) | 96.2 µM (inactive) |
| C=C1C[C@@H]2O[C@H]3[C@H]4[C@@H](C[C@@H](C)[C@@H](OC(C)=O)[C@H]42)[C@@H](C)CO[C@@]3(C)[C@H](OC(=O)CCCCCCC)CC1=O | 14.1 µM | 20.9 µM (inactive) | > 10 µM (inactive) |  | 16 µM (inactive) | 19.5 µM (inactive) | 16.5 µM (inactive) | 15 µM (inactive) | 26.5 µM (inactive) | 16 µM (inactive) | 17.2 µM (inactive) | 14.9 µM (inactive) | 18.4 µM (inactive) | 11.9 µM (inactive) | 17.1 µM (inactive) | 16.8 µM (inactive) | 17.6 µM (inactive) | 18.7 µM (inactive) | 16 µM (inactive) |  |
| CCN1CCN(c2nc3ccc([N+](=O)[O-])cc3nc2C(=O)c2ccccc2)CC1 | 12 µM |  | 17.8 µM (inactive) |  | 2.47 µM (inactive) | 16.7 µM (inactive) | 16.9 µM (inactive) |  | 26 µM (inactive) | 16.3 µM (inactive) | 30.4 µM (inactive) |  | 17.6 µM (inactive) | 21.8 µM (inactive) | 19.9 µM (inactive) | 18.7 µM (inactive) | 18.8 µM (inactive) | 3.23 µM (inactive) | 20.1 µM (inactive) | 14.8 µM (inactive) |
| Cc1cc2c(cc1C)OC(=O)CC2 |  | > 100 µM (inactive) | > 100 µM (inactive) | > 100 µM (inactive) | > 100 µM (inactive) | > 100 µM (inactive) | > 100 µM (inactive) | > 100 µM (inactive) |  | > 100 µM (inactive) | > 100 µM (inactive) | > 100 µM (inactive) | > 100 µM (inactive) | > 100 µM (inactive) | > 100 µM (inactive) | > 100 µM (inactive) | > 100 µM (inactive) | > 100 µM (inactive) | > 100 µM (inactive) |  |
| CN1[C@@H]2C[C@@H](OC(=O)[C@H](CO)c3ccccc3)C[C@H]1[C@@H]1O[C@@H]12 [SCOPOLAMINE HYDROBROMIDE] | > 100 µM | > 100 µM (inactive) | > 100 µM (inactive) | > 100 µM (inactive) | > 100 µM (inactive) |  | > 100 µM (inactive) | > 100 µM (inactive) |  | > 100 µM (inactive) | > 100 µM (inactive) | > 100 µM (inactive) | > 100 µM (inactive) |  | > 100 µM (inactive) | > 100 µM (inactive) | > 100 µM (inactive) | > 100 µM (inactive) | > 100 µM (inactive) | > 100 µM (inactive) |
